Patent publication US20160074405A1, “COMPOSITIONS AND METHODS FOR THE TREATMENT OF DRUG-INDUCED HAND-FOOT SYNDROME” (Duke University, priority 2009, published 2016)

Key:
[1] = patients treated with the agent; cited from earlier work
[2] = PPE grade observed in the treated patients under anti-cancer drug; type: in vivo, human; conditions: individual patient before sildenafil
Experimental: (§1) The first patient had both metastatic pancreatic cancer and a history of mild Raynaud's syndrome.
(§2) The third patient was a person with a gastro-intestinal stromal tumor (GIST) refractory to imatinib, who was being treated with sunitinib. […] They were treated with topical 2% sildenafil three times daily. To ensure activity in the setting of potentially significant costs for custom formulation, this patient applied topical sildenafil to only their left hand. […] This patient later was dosed with 1% topical sildenafil once per week. In addition, this patient experienced sunitinib-induced gastrointestinal toxicities (enteritis, diarrhea), which were treated with oral sildenafil to allow systemic absorption. The initial dose was 50 mg oral sildenafil daily. […] Thereafter lower doses were used on an as needed basis, including a quarter tablet (50 mg size) given once or twice per week.
(§3) A fourth patient was a person with metastatic angiosarcoma, who was treated with sunitinib for over four years.

[3] = Side effects of sildenafil treatment in the PPE patients; type: in vivo, human
Experimental: The third patient was a person with a gastro-intestinal stromal tumor (GIST) refractory to imatinib, who was being treated with sunitinib. Despite a gratifying response to sunitinib, they experienced grade 3 sunitinib-related PPE that required frequent dose holding and reduction. They were treated with topical 2% sildenafil three times daily. To ensure activity in the setting of potentially significant costs for custom formulation, this patient applied topical sildenafil to only their left hand. […] After only 3 doses (1 day) they noticed an improvement on the tenderness and redness of their hands. […] The improvement was “like day and night.” The right hand had all of these complications. These were severe enough that the patient had difficulty physically closing their hand more than halfway due to skin thickening as well as pain. Their left hand was completely flexible. After administration to both hands, they were able for the first time in many months to shake hands and make a first without difficulty or pain and they restarted playing their guitar in their church choir. This patient later was dosed with 1% topical sildenafil once per week. In addition, this patient experienced sunitinib-induced gastrointestinal toxicities (enteritis, diarrhea), which were treated with oral sildenafil to allow systemic absorption. The initial dose was 50 mg oral sildenafil daily. […] Thereafter lower doses were used on an as needed basis, including a quarter tablet (50 mg size) given once or twice per week.
Since each of these patients initially had only one affected skin region treated, followed by treatment of the other similarly affected regions, each patient was able to serve as her/his own control.

[4] = Topical sildenafil treatment of patients with drug-induced PPE (case reports); type: in vivo, human
Experimental: Four patients were treated with topical sildenafil for PPE, two with PPE related to capecitabine and two with PPE related to sunitinib. […] This initial clinical experience was outside the context of formal clinical trials, since no such trials were available.
as §1
Administration of 5FU was held due to the severity and persistence of the hand-foot syndrome. Topical sildenafil was applied to only the left hand.
as §2, §3

[5] = Oral sildenafil treatment of sunitinib-induced gastrointestinal toxicities and hand-foot syndrome (case report); type: in vivo, human; conditions: third patient; 50 mg oral sildenafil daily
Experimental: as §2

## CCCCCOC(=O)Nc1nc(=O)n([C@@H]2O[C@H](C)[C@@H](O)[C@H]2O)cc1F [capecitabine]
[1]
  frequency of any grade (grade 1-3) PPE: ≤ 54%
  frequency of severe (grade 3) PPE: ≤ 17%
[2]
  PPE grade under anti-cancer treatment: 2-3 grade

## CCCc1nn(C)c2c(=O)[nH]c(-c3cc(S(=O)(=O)N4CCN(C)CC4)ccc3OCC)nc12 [sildenafil]
[3]; all treated patients
  adverse impact on cancer's response to treatment: no patient had any suggestion of an adverse impact
  local or systemic side effects: No local or systemic side effects
[3]; third patient, topical 2% three times daily, month of treatment
  side effects such as headache, chest pain, lightheadedness, spontaneous erections: no side effects
[4]; first patient (capecitabine, Raynaud's), topical 2% applied to ulcers, within a week
  patient's pain and size and depth of the digital ulcers: marked improvement
[4]; first patient, topical, full palm of one hand
  PPE of the treated palm: significant improvement
[4]; fourth patient (sunitinib 37.5 mg per day, grade 1 at start), topical 2% in cold cream base
  PPE of treated right hand and foot: improved markedly
[4]; fourth patient, topical 2% in cold cream base
  time to marked improvement of treated right hand and foot: 1-2 weeks
[4]; second patient (capecitabine/5FU regimens), topical to left hand only, by day 8
  pain and redness of the left hand: improvement
[4]; second patient, by day 72
  hand-foot syndrome in both hands: resolved
[4]; third patient (sunitinib, grade 3 PPE), topical 2% three times daily, left hand, after 3 doses (1 day)
  tenderness and redness of hands: improvement
[4]; third patient, topical 2% three times daily, after 4 weeks
  multiple blisters, cracks, and callousness: resolved essentially completely
[4]; third patient, topical 2% three times daily, by one week
  pain, redness and blisters: markedly improved
[4]; topical sildenafil, patients with capecitabine- or sunitinib-related PPE
  PPE-related symptoms: significantly improved
[5]
  gastrointestinal toxicities and hand-foot syndrome: rapidly improved
  time to improvement of gastrointestinal toxicities and hand-foot syndrome: ≤ 1 days

## CNC(=O)c1cc(Oc2ccc(NC(=O)Nc3ccc(Cl)c(C(F)(F)F)c3)cc2)ccn1 [sorafenib]
[1]
  frequency of any grade (grade 1-3) PPE: ≤ 30%
  frequency of severe (grade 3) PPE: ≤ 8%

## CCN(CC)CCNC(=O)c1c(C)[nH]c(/C=C2\C(=O)Nc3ccc(F)cc32)c1C [sunitinib]
[1]
  frequency of any grade (grade 1-3) PPE: up to 21%
  frequency of severe (grade 3) PPE: up to 5%
[2]
  PPE grade under anti-cancer treatment: 3 grade
